This is an account of results in patent US11555210B2, “Microbe having increased tolerance to phenolic fermentation inhibitors” (University of Ottawa, priority 2018, dated 2023).

Assay type in all cases: cell-based, S. cerevisiae
One assay has as its system wild-type yeast (BY4741). Put plainly: ROS measurement by H2DCFDA fluorescence microscopy. The settings on record: 2 mM CA, 10 mM FA or 50 mM 4-HBA, 1 hour at 30° C. The method, then:
Measurement of ROS was performed as previously described (Kennedy et al., 2016, Sci Rep. 6, 19332). Briefly cells were incubated with 10 μM 2′,7′-dichlorodihydrofluorescein diacetate (H2DCFDA; Invitrogen cat. #D399) for 15 min in the dark. […] An aliquot of 5 μL was spotted onto glass slides and covered with a cover slip prior to imaging. All images were acquired using a Leica DMI 6000 florescent microscope (Leica Microsystems GmbH, Wetzler Germany), equipped with a Sutter DG4 light source (Sutter Instruments, California, USA), Ludl emission filter wheel with Chroma band pass emission filters (Ludl Electronic Products Ltd., NY, USA) and Hamamatsu Orca AG camera (Hamamatsu Photonics, Herrsching am Ammersee, Germany). Images were acquired at 0.2 μm steps across 6 μm using a 63× oil-immersion objective with a 1.4 numerical aperture. Analysis of H2DCFDA fluorescence was performed using Velocity Software V4 (Perkin Elmer). Image J software was used to quantify the H2DCFDA fluorescence signal in cells as described by Schneider et al (Schneider et al., 2012, Nature Methods, 9, 671-675) with a slight modification. Briefly, background fluorescence was subtracted from the images and the total fluorescence of all the cells in the image was measured and divided by the number of cells in the image. The images contained a minimum of 100 cells. The ratio of fluorescence per cell of treated cultures was divided by that of untreated cultures to eliminate background endogenous ROS production.

The test system of assay [1] is Sol2-GFP, Sol3-GFP and Rpe1-GFP. Put plainly: fluorescence microscopy of GFP-tagged pentose phosphate pathway proteins. The settings on record: 2 mM coniferyl aldehyde.
The test system of a further assay is Zwf1. Put plainly: Zwf1 protein quantification by western blot. The settings on record: 2 mM coniferyl aldehyde, 2 hours at 30° C.; ρ=0.00176. The method, then:
Protein quantification was carried out by western blots as follows. Overnight cultures of wild type cells were diluted in fresh YPD medium to a final OD600 of 0.1. These were grown at 30° C. until they reached the early log phase. Subsequently, coniferyl aldehyde was added to the cultures to a final concentration of 2 mM and the cultures were further incubated for 2 hours. Whole cell extracts (WCE) were obtained by centrifugation of the cells (3000 rpm for 3 min; 4° C.), washing of cell pellet with chilled sterile water and cell lysis using the Trichloroacetic acid (TCA) protocol (Kao and Osley, 2003, Methods. 31,59-66). Equal number of cells was used for the TCA lysis and equal volumes of WCE were used for the quantitative western blot analysis. […] Prior to the protein level quantification, the linear range of the target protein Zwf1 was determined by loading seven 2-fold dilutions of the WCE to obtain a standard curve of protein load versus band intensity of Zwf1. The amount of Zwf1 in the coniferyl aldehyde treated cultures and the control was quantified using the Image Lab software as previously described (Taylor and Posch, 2014, BioMed Research International. 2014, 361590). This was calculated as the ratio of the Zwf1 band intensity to the intensity of bands in the entire lane signal using the TGX Stain-Free Fast Cast (total proteins). […]
A general note: A western blot detects proteins with antibodies after separation by electrophoresis.

The test system of a further assay is Zwf1-GFP. Put plainly: co-localization of Zwf1-GFP with mitochondrial and ER markers. The text has this: For co-localization studies, images were obtained as Z-stacks. Co-localization of the fluorescence signals were quantified using the IMARIS software 9.2.1 (Bitplane; http://www.bitplane.com) and a Manders' overlap co-efficient (Manders et al., 1993, Journal of Microscopy. 169, 375-382) was used to evaluate the fraction of RFP pixels (organelle marker) also positive for GFP pixels ([…]). The closer the value is to one, the higher the level of co-localization. The analysis was complemented by performing an object-based quantification where the percentage volume of ROS that localized to the mitochondria and endoplasmic reticulum was measured.
A strain expressing endogenously tagged Zwf1-GFP and either the mitochondrial marker CIT1-RFP or the ER marker SEC13-RFP were imaged as described in Example 5 both before and after 2 hours of treatment with 2 mM coniferyl aldehyde. […] Using the object-based analysis, the percentage volume of Zwf1 localizing to the mitochondria was measured as 47.10±8.04%. Likewise, co-localization of Zwf1-GFP to the ER marker Sec13-RFP was observed, though to a lesser extent, and confirmed by a quantitative analysis using a Mander's overlap co-efficient (0.22±0.07). (FIG. 11B).

A further assay deals with gnd1Δ (YKB4797). Put plainly: dot assay on YPD agar plates. The settings on record: 1 mM coniferyl aldehyde, 48 hr at 30° C. How it is done: (§1) Wild type (BY4741) along with zwf1Δ (YKB4794), sol2Δ (YKB4847), sol3Δ (YKB4848), gnd1Δ (YKB4797), gnd2Δ (YKB4850), rpe1Δ (YKB4795), tal1Δ (YKB4851) and tkl1Δ (YKB4796) deletion strains were grown to mid log phase in YPD medium prior to being diluted into fresh medium to an OD600of 0.1. Four 10-fold serial dilutions were spotted onto YPD agar plates containing either 1 mM coniferyl aldehyde (1 mM CA) or no coniferyl aldehyde (0 mM CA). Plates were incubated for 48 hr at 30° C. and images are representative of three biological replicates.

The next assay concerns tkl1Δ (YKB4796). Put plainly: dot assay on YPD agar plates. The settings on record: 1 mM coniferyl aldehyde, 48 hr at 30° C. The method, then:
as §1

A further assay concerns zwf1Δ (YKB4794). Put plainly: dot assay on YPD agar plates. The settings on record: 10 mM FA, 35 mM 4-HBA or 1 mM CA, 48 hr at 30° C., compared to wild type. The method, then:
as §1
Wild type (BY4741), bna7Δ (YKB4649) and zwf1Δ (YKB4794) were grown to mid log phase in YPD medium prior to being diluted into fresh medium to an OD600 of 0.1. Four 10-fold serial dilutions were spotted onto YPD agar plates containing either no compound (Untreated), 10 mM ferulic acid (FA), 35 mM 4-hydroxybenzoic acid (4-HBA) or 1 mM coniferyl aldehyde (CA). Plates were incubated for 48 hr at 30° C. and images are representative of three biological replicates.

Setting [2] is: 2 hours of treatment with 2 mM coniferyl aldehyde.

“Also recorded” adds a separate entry of the source.

On to `COc1cc(C=CC=O)ccc1O` [coniferyl aldehyde, 4-hydroxy-3-methoxycinnamaldehyde], for which the “subcellular distribution of induced ROS” value with wild-type yeast (BY4741) is “formed punctate structures within the cell”. Moreover, in assay [1], the “localization of Sol2-GFP, Sol3-GFP and Rpe1-GFP signal” value is “concentration of signal into punctate structures”. In addition, the “increase in Zwf1 protein levels compared to untreated” value in the assay on Zwf1 was determined as 1.5 fold. In the assay on Zwf1-GFP (setting [2]), the “Mander's overlap co-efficient, Zwf1-GFP with ER marker Sec13-RFP” value came out at 0.22±0.07 and the “Manders' overlap coefficient, Zwf1-GFP with mitochondrial marker CIT1-RFP” value is reported as 0.34±0.07. For the same compound, in the assay with Zwf1-GFP (2 hours, 2 mM coniferyl aldehyde, object-based analysis), the “percentage volume of Zwf1 localizing to the mitochondria” value is on record as 47.10±8.04%. In addition, the “growth of gnd1Δ on agar plates” value in the assay on gnd1Δ (YKB4797) was “no growth”. For the same compound, in the assay with tkl1Δ (YKB4796), the “growth of tkl1Δ on agar plates” value is given as “no growth”. The “growth of zwf1Δ on agar plates” value in the assay on zwf1Δ (YKB4794) is “no growth; also recorded: limited growth”.
